Holding throughout (experiment): Fluorescein-AMP
Format in all cases: biochemical

Assay [1] addresses PDE3A (Homo sapiens, UniProt Q14432).
Assay [2] deals with PDE10A2 (Homo sapiens, UniProt Q9Y233).
Assay [3] deals with PDE5A (Homo sapiens, UniProt O76074).
Assay [4] deals with PDE8A1 (Homo sapiens, UniProt O60658).

Drawing on publication PMC11367099 (Heliyon, 2024), this text covers IC50 for one molecule.

SMILES strings stand for the structures.

Chain of PDE3A (Q14432 whole entry): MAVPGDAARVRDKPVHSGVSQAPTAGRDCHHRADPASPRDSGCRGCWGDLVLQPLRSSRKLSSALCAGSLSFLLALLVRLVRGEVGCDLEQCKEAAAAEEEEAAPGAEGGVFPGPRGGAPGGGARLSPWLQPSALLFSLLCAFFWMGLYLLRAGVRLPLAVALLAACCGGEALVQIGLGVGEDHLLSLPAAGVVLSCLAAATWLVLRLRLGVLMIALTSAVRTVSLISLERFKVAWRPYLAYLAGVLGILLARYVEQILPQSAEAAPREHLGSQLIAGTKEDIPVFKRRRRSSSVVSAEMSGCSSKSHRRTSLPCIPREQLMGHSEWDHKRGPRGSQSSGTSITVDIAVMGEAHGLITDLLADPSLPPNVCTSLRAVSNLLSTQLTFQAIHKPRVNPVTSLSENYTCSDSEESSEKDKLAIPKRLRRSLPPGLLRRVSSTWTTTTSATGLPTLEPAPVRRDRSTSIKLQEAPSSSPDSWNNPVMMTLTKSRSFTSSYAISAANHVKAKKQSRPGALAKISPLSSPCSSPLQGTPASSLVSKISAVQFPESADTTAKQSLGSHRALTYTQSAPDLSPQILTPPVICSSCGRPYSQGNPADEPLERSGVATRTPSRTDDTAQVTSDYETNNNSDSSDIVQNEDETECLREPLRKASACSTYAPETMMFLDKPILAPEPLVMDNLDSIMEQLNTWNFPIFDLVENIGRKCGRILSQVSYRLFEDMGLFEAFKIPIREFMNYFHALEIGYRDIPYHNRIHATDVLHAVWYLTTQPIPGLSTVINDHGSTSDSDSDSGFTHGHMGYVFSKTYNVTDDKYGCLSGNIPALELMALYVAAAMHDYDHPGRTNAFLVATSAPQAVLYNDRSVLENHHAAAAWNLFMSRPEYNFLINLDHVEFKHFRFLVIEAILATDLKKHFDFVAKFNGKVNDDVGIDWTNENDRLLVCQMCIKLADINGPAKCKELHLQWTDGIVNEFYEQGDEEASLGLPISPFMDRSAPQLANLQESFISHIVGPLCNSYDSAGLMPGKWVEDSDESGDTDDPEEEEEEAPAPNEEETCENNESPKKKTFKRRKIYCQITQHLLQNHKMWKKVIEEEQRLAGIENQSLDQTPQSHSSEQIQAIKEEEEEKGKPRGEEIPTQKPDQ
Chain of PDE8A1 (O60658 whole entry): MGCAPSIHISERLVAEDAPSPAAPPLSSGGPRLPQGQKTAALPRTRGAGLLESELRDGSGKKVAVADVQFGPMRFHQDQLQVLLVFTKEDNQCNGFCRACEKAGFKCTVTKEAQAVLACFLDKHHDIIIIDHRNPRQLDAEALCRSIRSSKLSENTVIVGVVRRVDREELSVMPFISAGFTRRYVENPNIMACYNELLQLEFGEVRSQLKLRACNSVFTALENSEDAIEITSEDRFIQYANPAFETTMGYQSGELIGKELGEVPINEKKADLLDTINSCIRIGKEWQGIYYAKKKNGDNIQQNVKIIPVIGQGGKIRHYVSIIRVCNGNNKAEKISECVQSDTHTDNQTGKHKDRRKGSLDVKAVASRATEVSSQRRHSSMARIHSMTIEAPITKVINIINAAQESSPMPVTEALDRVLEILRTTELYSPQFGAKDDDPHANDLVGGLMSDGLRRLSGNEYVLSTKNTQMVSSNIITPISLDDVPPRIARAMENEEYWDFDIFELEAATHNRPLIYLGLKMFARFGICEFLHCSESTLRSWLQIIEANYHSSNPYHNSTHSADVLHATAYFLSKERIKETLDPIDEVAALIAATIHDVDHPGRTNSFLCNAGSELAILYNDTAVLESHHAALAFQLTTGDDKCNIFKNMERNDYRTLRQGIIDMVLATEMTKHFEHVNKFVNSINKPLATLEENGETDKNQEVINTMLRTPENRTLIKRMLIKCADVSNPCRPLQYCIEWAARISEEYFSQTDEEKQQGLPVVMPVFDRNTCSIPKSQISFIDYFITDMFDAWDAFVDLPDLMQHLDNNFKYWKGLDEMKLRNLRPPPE
Chain of PDE10A2 (Q9Y233 267-1055): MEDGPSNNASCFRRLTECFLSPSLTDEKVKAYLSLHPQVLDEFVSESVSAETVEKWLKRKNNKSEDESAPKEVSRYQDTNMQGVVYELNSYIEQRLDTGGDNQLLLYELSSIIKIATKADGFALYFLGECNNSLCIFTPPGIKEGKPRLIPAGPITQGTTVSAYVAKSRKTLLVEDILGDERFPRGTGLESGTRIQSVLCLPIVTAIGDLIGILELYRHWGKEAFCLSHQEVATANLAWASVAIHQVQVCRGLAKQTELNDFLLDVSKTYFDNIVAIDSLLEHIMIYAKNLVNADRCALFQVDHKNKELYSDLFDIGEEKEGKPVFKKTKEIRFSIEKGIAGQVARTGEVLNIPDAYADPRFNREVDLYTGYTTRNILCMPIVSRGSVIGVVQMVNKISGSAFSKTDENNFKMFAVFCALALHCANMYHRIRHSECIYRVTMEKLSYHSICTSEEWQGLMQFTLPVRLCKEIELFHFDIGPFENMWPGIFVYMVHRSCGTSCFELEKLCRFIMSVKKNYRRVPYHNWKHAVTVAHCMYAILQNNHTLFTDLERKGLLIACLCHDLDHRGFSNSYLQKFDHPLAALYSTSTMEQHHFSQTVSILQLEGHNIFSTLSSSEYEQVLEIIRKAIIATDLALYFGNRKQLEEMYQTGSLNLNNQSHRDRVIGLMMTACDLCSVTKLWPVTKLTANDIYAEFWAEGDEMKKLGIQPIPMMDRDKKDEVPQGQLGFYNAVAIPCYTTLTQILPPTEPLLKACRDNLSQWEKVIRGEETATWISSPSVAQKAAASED

Broadly, the IC50 is the concentration that inhibits the measured activity by half. Read a high IC50 as weaker potency in that assay. For the molecule `COc1cc(-c2cc(=O)c3c(O)c(OC)c(O)c(OC)c3o2)ccc1O` [Sudachitin], the half-inhibitory concentration (IC50) in assay [1] was 5.19 µM; in assay [2], 9.99 µM; in assay [3] it was 6.54 µM; in assay [4], 26.3 µM.
